What was measured:
[1] = Spontaneous nitric oxide release: nitrites+nitrates titrated by Griess colorimetry with nitrate reductase; conditions: test product final concentration 150 μM, incubated four hours at 37° C., pH 7.5 PBS buffer, Griess reagent, OD 540 nm
Description: A solution of a compound of the invention of the formula I spontaneously releases nitric oxide. The nitrite ions resulting therefrom are titrated by colorimetry by means of a specific reagent (Griess). To take account of any release of nitrate ions in addition to the nitrite ions, bacterial nitrate reductase is added to the reaction medium, which makes it possible to reduce the nitrate ions formed.
The reactions and measurements are performed in transparent 96-well plates. The test products are dissolved extemporaneously at a concentration of 3 mM in dimethyl sulfoxide. 95 μl of a reagent comprising nitrate reductase (0.18 U/ml in 0.100 mM pH 7.5, PBS buffer, β-NADPH 210 μM, FAD 5 μM) and 5 μl of the solution of the test product (final concentration of 150 μM) are then introduced into each well. After stirring, the mixture is incubated for four hours at 37° C. The reaction is then quenched by addition of 100 μl of the Griess reagent (Sigma G4410). This reagent is left to act for five minutes at room temperature, and the optical density is then read at 540 nm. This value is proportional to the concentration of nitrites+nitrates in the medium. A calibration range is made for each plate using NaNO2.
The results are expressed in μmol/l (μM) of nitrites+nitrates released in Table I for some of the compounds of the formula I illustrated below.

Human LDLs = assay: Antioxidant effect: cupric ion-induced oxidation of human LDL (fluorescence); assay type: biochemical; conditions: human LDL 120 μg/ml, CuCl2, 37° C., fluorescence difference 2 h vs 24 h, from three concentrations
Description: Human LDLs placed in aqueous solution in the presence of cupric ions, become spontaneously oxidized on their protein component, apolipoprotein-B. This oxidation makes the particle fluorescent, which is exploited to measure a pharmacological effect.
The reactions and measurements are performed in black 96-well plates. 10 μl of a solution of the test product dissolved in dimethyl sulfoxide are first mixed with 170 μl of a solution of human LDL at a concentration of 120 μg/ml and 20 μl of 100 μM CuCl2. After stirring, the mixture is incubated for 2 hours at 37° C., and a first fluorescence reading is taken (excitation at 360 nm, reading at 460 nm). The mixture is then incubated for a further 22 hours, to take a second reading under the same conditions. The difference is proportionately smaller the greater the antioxidant power of the test product. Probucol is used as reference product at a concentration of 10 μM.
The concentrations that inhibit 50% (IC50) of the oxidation are prepared from three concentrations of the test product. They are given in Table II below for some of the compounds of the formula I given as examples below.

fatty Zucker rats = assay: Hypotriglyceridaemiant activity in fatty Zucker rats; assay type: in vivo, rat; conditions: 9-week-old male Zucker rats, 200 mg/kg/day p.o. for eight days, after fasting four hours
Description: The compounds were tested on fatty Zucker rats (Zucker L. M. et al., 1961, Fatty a new mutation in the rat, J. Hered., 52: 275-278). This animal is hyperphagic, obese and hyperinsulinaemic. It develops resistance to insulin, it is hyperlipidaemic, and has a large hypertriglyceridaemia.
9-week-old male Zucker rats were treated for eight days with the compounds of Example 2 and Example 5 at a dose of 200 mg/kg/day p.o. After fasting for four hours, a blood sample is taken to recover the plasma. […] The compound of Example 5 has a 21% […] effect (p<0.05) and reduces insulin by 45% (p<0.05).

SMILES: COc1ccc(N(N=O)c2ccc(CO)cc2)cc1 [Example 8, {4-[(4-Methoxyphenyl)(nitroso)amino]phenyl}methanol]
- Nitrites—Nitrates released [1]: 88 µM
- IC50 (Human LDLs): 18.4 µM

SMILES: COc1ccc(N(N=O)c2ccc(C(C)=O)cc2)cc1 [Example 18]
- Nitrites—Nitrates released [1]: 81 µM

SMILES: N#Cc1ccc(N(N=O)c2ccc(C(=O)O)cc2)cc1 [Example 14]
- Nitrites—Nitrates released [1]: 69 µM

SMILES: O=NN(c1ccc(C(=O)O)cc1)c1ccc(C(F)(F)F)cc1 [Example 5, 4-{Nitroso[4-(trifluoromethyl)phenyl]amino}benzoic acid]
- reduction in triglycerides (plasma) (fatty Zucker rats): 21%
- reduction of insulinaemia (plasma insulin) (fatty Zucker rats): 45%
- Nitrites—Nitrates released [1]: 108 µM

SMILES: CS(=O)(=O)c1ccc(N(N=O)c2ccc(C(=O)O)cc2)cc1 [Example 15]
- Nitrites—Nitrates released [1]: 88 µM

SMILES: O=NN(c1ccc(F)cc1)c1ccc(C(=O)O)cc1 [Example 19]
- Nitrites—Nitrates released [1]: 79 µM

SMILES: CCOC(=O)c1ccc(N(N=O)c2ccc(S(C)(=O)=O)cc2)cc1 [Example 12]
- Nitrites—Nitrates released [1]: 38 µM

SMILES: COc1ccc(N(N=O)c2ccc(C(N)=O)cc2)cc1 [Example 42]
- Nitrites—Nitrates released [1]: 79 µM

SMILES: O=NN(c1ccc(C(=O)O)cc1)c1ccc([N+](=O)[O-])cc1 [Example 13]
- Nitrites—Nitrates released [1]: 86 µM
- IC50 (Human LDLs): 4.6 µM

SMILES: COc1ccc(N(N=O)c2ccc(CC(=O)O)cc2)cc1 [Example 17]
- Nitrites—Nitrates released [1]: 58 µM
- IC50 (Human LDLs): 11.6 µM

SMILES: COc1ccc(N(N=O)c2ccc(C#N)cc2)cc1 [Example 6, 4-[(4-Methoxyphenyl)(nitroso)amino]benzonitrile]
- Nitrites—Nitrates released [1]: 43 µM
- melting point: 88 to 90 °C

SMILES: CCOC(=O)c1ccc(N(N=O)c2ccc(C#N)cc2)cc1 [Example 10]
- Nitrites—Nitrates released [1]: 76 µM
- IC50 (Human LDLs): 6.2 µM

SMILES: O=NN(c1ccc(C(=O)O)cc1)c1ccc(C(=O)O)cc1 [Example 30, 4,4′-(Nitrosoimino)dibenzoic acid]
- Nitrites—Nitrates released [1]: 58 µM

SMILES: COc1ccc(N(N=O)c2ccc(C(=O)O)cc2)cc1 [Example 2, 4-[(4-Methoxyphenyl)(nitroso)amino]benzoic acid]
- reduction in triglycerides (plasma) (fatty Zucker rats): 58%
- reduction of insulinaemia (plasma insulin) (fatty Zucker rats): 47%
- Nitrites—Nitrates released [1]: 87 µM
- IC50 (Human LDLs): 17 µM
- melting point: 169 to 171 °C
